Measurements from PubChem BioAssay AID1845219 (Molecular Pharmacology Branch, DTP, NCI, 2023).

System: SYO-1 tumor spheroids, viability % test/control
Assay: Anticancer human tumor SYO-1 cell line growth inhibition;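 further: spheroids exposed to agents for 7 days before viability read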;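 on viability, T/C: 100% = DMSO vehicle control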
Settings: spheroids with HUVEC and MSC; for IC50: curve of first compound; for viability, T/C: stronger effect = lower value; active means viability on the fitted dose curve at most 10% of control; inactive means the rest
From the text: Multicellular complex tumor spheroid response to DNA repair inhibitors in combination with DNA-damaging drugs
This study explores the anticancer activities of DNA-damaging drugs and inhibitors of DNA damage repair, both as single agents and in combinations. Complex tumor spheroids comprised of malignant cells, endothelial cells and mesenchymal stem cells served as an in vitro model for human solid tumors. This model system incorporates physiologically relevant features and patient-derived or established malignant cell lines with clinically relevant genetic alterations from many tumor types. Twenty-six patient-derived or established malignant cell lines were evaluated representing sarcoma, melanoma, small cell lung cancer (SCLC), non-small cell lung cancer (NSCLC), as well as bladder, ovarian and pancreatic cancers. The concentration ranges selected for each drug and investigational agent were based upon clinically achievable concentrations if the clinical Cmax of the agent was known.
Compounds. The drugs and compounds olaparib (NSC753686), talazoparib (NSC767125), berzosertib (NSC777718), elimusertib (NSC800525), nedisertib (NSC802822), VX-984 (NSC792969), AZD-1390 (NSC803789), temozolomide (NSC362856), topotecan (NSC609699), trabectedin (NSC813783), staurosporine (NSC755774), and gemcitabine (NSC613327) were obtained from the National Cancer Institute (NCI) Developmental Therapeutics Program Chemical Repository. The FDA-approved anticancer drug set is available from the Developmental Therapeutics Program at https://dtp.cancer.gov/organization/dscb/obtaining/available_plates.htm. […] The stock solutions were prepared in dimethyl sulfoxide (DMSO, Sigma-Aldrich, St. Louis, MO, cat. D2650) at 400-fold the tested concentration and stored at -70 degrees C. Prior to their use, the stock solutions were diluted in fresh medium and the final DMSO concentration in the assay was 0.25% (v/v). All drugs and investigational agents were tested over a range starting from a high concentration at or near the clinical Cmax and decreasing in half-log increments. If the clinical Cmax for an agent had not been determined, the highest concentration tested was 10 microM.
Cell Lines. The patient-derived cancer cell (PDC) lines: 156681-154-R-J1-PDC, 283228-195-R-J1-PDC, 287954-098-R-J1-PDC, 292921-168-R-J2-PDC, 349418-098-R-PDC, 425362-245-T-J1-PDC, 556581-035-R-J1-PDC, and BL0293-F563-PDC were received from the NCI Patient-Derived Models Repository (PDMR, https://pdmr.cancer.gov). The established cell lines HS-SY-2 (RRID:CVCL_8719), MPNST, and SYO-1 (RRID:CVCL_7146) were obtained from the Sloan Kettering Institute. The alveolar soft parts sarcoma cell line ASPS-1 (RRID:CVCL_S738) was established at the NCI and grown from internal seed stocks. The following established cell lines were purchased from the American Type Culture Collection (ATCC, Manassas, VA): G-401 (ATCC, cat. CRL-1441, RRID:CVCL_0270), SW982 (ATCC, cat. HTB-93, RRID:CVCL_1734), VA-ES-BJ (ATCC, cat. CRL-2138, RRID:CVCL_1785), NCI-H719 (ATCC, cat. CRL-5837, RRID:CVCL_1582), NCI-H196 (ATCC, cat. CRL-5823, RRID:CVCL_1509), NCI-H841 (ATCC, cat. CRL-5845, RRID:CVCL_1595), NCI-H1618 (ATCC, cat. CRL-5879, RRID:CVCL_1480), NCI-H1876 (ATCC, cat. CRL-5902, RRID:CVCL_1503), DMS 114 (ATCC, cat. CRL-2066; RRID:CVCL_1174), NCI-H211 (ATCC, cat. CRL-5824; RRID:CVCL_1529), and SW 1271 (ATCC, cat. CRL-2177, RRID:CVCL_1716). The small cell lung cancer cell line COR-L88 was purchased from Sigma-Aldrich (cat. 92031917-1VL, RRID:CVCL_1141). The non-small cell lung cancer cell lines NCI-H226 (RRID:CVCL_1544) and NCI-H322M (RRID:CVCL_1557) were established at the NCI and grown from internal seed stocks. Pooled donor human umbilical vein endothelial cells (HUVEC, Lonza, cat. CC-2519) and human mesenchymal stem cells (hMSC, Lonza, cat. PT-2501) were purchased from Lonza (Walkersville, MD).
Cell Culture. All cells were maintained in an incubator at 37 degrees C and 5% CO2 with 95% humidity. […]

[1] = second compound 0.003 µM, first compound 0.0949 µM
[2] = second compound 0.003 µM, first compound 0.3 µM
[3] = second compound 0.003 µM, first compound 0.949 µM
[4] = second compound 0.003 µM, first compound 3 µM
[5] = second compound 0.00949 µM, first compound 0.0949 µM
[6] = second compound 0.00949 µM, first compound 0.3 µM
[7] = second compound 0.00949 µM, first compound 0.949 µM
[8] = second compound 0.00949 µM, first compound 3 µM
[9] = second compound 0.03 µM, first compound 0.0949 µM
[10] = second compound 0.03 µM, first compound 0.3 µM
[11] = second compound 0.03 µM, first compound 0.949 µM
[12] = second compound 0.03 µM, first compound 3 µM
[13] = second compound 0.0949 µM, first compound 0.0949 µM
[14] = second compound 0.0949 µM, first compound 0.3 µM
[15] = second compound 0.0949 µM, first compound 0.949 µM
[16] = second compound 0.0949 µM, first compound 3 µM
[17] = second compound 0.3 µM, first compound 0.0949 µM
[18] = second compound 0.3 µM, first compound 0.3 µM
[19] = second compound 0.3 µM, first compound 0.949 µM
[20] = second compound 0.3 µM, first compound 3 µM

Cn1ncnc1[C@H]1c2n[nH]c(=O)c3cc(F)cc(c23)N[C@@H]1c1ccc(F)cc1 + CC[C@@]1(O)C(=O)OCc2c1cc1n(c2=O)Cc2cc3c(CN(C)C)c(O)ccc3nc2-1
< 0.00949 µM: IC50 (second compound 0.003 µM) | IC50 (second compound 0.00949 µM) | IC50 (second compound 0.03 µM) | IC50 (second compound 0.0949 µM) | IC50 (second compound 0.3 µM)
active: viability, T/C (second compound 0.003 µM, first compound 0.00949 µM) 3.29% | viability, T/C (second compound 0.003 µM, first compound 0.03 µM) 2.24% | viability, T/C [1] 1.89% | viability, T/C [2] 1.63% | viability, T/C [3] 1.45% | viability, T/C [4] 1.47% | viability, T/C (second compound 0.00949 µM, first compound 0.00949 µM) 1.7% | viability, T/C (second compound 0.00949 µM, first compound 0.03 µM) 1.69% | viability, T/C [5] 1.68% | viability, T/C [6] 1.41% | viability, T/C [7] 1.63% | viability, T/C [8] 1.37% | viability, T/C (second compound 0.03 µM, first compound 0.00949 µM) 1.69% | viability, T/C (second compound 0.03 µM, first compound 0.03 µM) 1.49% | viability, T/C [9] 1.7% | viability, T/C [10] 1.53% | viability, T/C [11] 1.32% | viability, T/C [12] 1.28% | viability, T/C (second compound 0.0949 µM, first compound 0.00949 µM) 1.59% | viability, T/C (second compound 0.0949 µM, first compound 0.03 µM) 1.89% | viability, T/C [13] 1.72% | viability, T/C [14] 1.66% | viability, T/C [15] 1.34% | viability, T/C [16] 1.13% | viability, T/C (second compound 0.3 µM, first compound 0.00949 µM) 1.71% | viability, T/C (second compound 0.3 µM, first compound 0.03 µM) 1.64% | viability, T/C [17] 1.52% | viability, T/C [18] 1.37% | viability, T/C [19] 1.3% | viability, T/C [20] 1.04%

O=C(c1cc(Cc2n[nH]c(=O)c3ccccc23)ccc1F)N1CCN(C(=O)C2CC2)CC1 + CC[C@@]1(O)C(=O)OCc2c1cc1n(c2=O)Cc2cc3c(CN(C)C)c(O)ccc3nc2-1
< 0.0949 µM: IC50 (second compound 0.003 µM) | IC50 (second compound 0.00949 µM) | IC50 (second compound 0.03 µM) | IC50 (second compound 0.0949 µM) | IC50 (second compound 0.3 µM)
active: viability, T/C [3] 8.02% | viability, T/C [4] 2.93% | viability, T/C (second compound 0.003 µM, first compound 9.49 µM) 2.62% | viability, T/C (second compound 0.003 µM, first compound 30 µM) 2.56% | viability, T/C [5] 2.56% | viability, T/C [6] 2.35% | viability, T/C [7] 2.18% | viability, T/C [8] 1.79% | viability, T/C (second compound 0.00949 µM, first compound 9.49 µM) 2.63% | viability, T/C (second compound 0.00949 µM, first compound 30 µM) 2.34% | viability, T/C [9] 1.56% | viability, T/C [10] 1.76% | viability, T/C [11] 1.49% | viability, T/C [12] 1.64% | viability, T/C (second compound 0.03 µM, first compound 9.49 µM) 1.62% | viability, T/C (second compound 0.03 µM, first compound 30 µM) 1.56% | viability, T/C [13] 1.91% | viability, T/C [14] 1.81% | viability, T/C [15] 1.99% | viability, T/C [16] 1.8% | viability, T/C (second compound 0.0949 µM, first compound 9.49 µM) 1.74% | viability, T/C (second compound 0.0949 µM, first compound 30 µM) 1.82% | viability, T/C [17] 2.04% | viability, T/C [18] 1.92% | viability, T/C [19] 2.02% | viability, T/C [20] 1.92% | viability, T/C (second compound 0.3 µM, first compound 9.49 µM) 1.99% | viability, T/C (second compound 0.3 µM, first compound 30 µM) 2.21%
inactive: viability, T/C [1] 40.5% | viability, T/C [2] 24.1%
